Laboratory results: patent US20130310379A1, “MODULATORS OF METHYL MODIFYING ENZYMES, COMPOSITIONS AND USES THEREOF” (CONSTELLATION PHARMACEUTICALS, priority 2010, published 2013)

target: EZH2 (Homo sapiens, UniProt Q15910); experiment: EZH2 assay: rPRC2 with biotinylated oligonucleosome substrates and 3H SAM, FlashPlate scintillation counting, IC50; type: biochemical; settings: rPRC2, biotinylated oligonucleosome substrates, 3H SAM; read-out: EZH2 IC50
Summary of the method: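 rPRC2 (2 nM EZH2) pre-incubated 20 min with compound (80 to 0.16 uM, ten 2-fold steps), then 60 min reaction with 0.2 uM 3H SAM, 0.2 uM biotinylated oligonucleosomes, 3.6 uM H3K27me3 peptide in Tris pH 8.5. SAH/EDTA quench; 4-parameter IC50 fit.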

EZH2, sequence (Q15910 whole entry): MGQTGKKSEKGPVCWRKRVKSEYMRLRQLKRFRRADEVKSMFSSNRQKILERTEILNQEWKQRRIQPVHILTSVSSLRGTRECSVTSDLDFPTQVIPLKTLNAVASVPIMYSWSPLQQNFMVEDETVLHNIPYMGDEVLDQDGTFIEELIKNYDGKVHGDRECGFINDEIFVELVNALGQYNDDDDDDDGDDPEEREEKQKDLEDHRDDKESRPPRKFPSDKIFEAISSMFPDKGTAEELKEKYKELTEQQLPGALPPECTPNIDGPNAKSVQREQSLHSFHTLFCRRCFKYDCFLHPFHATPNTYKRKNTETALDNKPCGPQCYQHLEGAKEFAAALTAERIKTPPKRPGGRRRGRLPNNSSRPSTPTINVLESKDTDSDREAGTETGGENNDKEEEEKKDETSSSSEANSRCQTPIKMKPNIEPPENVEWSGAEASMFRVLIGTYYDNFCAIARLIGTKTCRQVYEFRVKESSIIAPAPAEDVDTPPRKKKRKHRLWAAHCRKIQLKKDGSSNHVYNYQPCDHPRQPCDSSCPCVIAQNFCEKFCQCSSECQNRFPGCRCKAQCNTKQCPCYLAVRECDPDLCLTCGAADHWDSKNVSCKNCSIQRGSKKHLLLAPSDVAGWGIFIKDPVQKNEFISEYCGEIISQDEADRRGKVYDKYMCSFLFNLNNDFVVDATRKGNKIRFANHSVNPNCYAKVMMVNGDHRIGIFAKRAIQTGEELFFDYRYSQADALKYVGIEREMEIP
EZH2, sequence (O75530 whole entry partner): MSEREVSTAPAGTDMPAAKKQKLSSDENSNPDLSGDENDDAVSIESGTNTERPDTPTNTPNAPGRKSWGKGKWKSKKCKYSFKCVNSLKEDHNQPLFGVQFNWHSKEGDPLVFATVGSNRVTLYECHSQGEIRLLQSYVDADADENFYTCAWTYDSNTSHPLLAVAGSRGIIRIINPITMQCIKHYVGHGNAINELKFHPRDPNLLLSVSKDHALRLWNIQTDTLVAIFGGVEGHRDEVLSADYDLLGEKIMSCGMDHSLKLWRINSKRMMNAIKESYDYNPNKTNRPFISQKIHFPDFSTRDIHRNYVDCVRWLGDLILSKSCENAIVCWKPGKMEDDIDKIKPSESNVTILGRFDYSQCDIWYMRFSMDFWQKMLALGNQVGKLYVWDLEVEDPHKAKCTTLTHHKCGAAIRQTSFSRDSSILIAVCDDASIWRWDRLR
EZH2, sequence (Q15022 whole entry partner): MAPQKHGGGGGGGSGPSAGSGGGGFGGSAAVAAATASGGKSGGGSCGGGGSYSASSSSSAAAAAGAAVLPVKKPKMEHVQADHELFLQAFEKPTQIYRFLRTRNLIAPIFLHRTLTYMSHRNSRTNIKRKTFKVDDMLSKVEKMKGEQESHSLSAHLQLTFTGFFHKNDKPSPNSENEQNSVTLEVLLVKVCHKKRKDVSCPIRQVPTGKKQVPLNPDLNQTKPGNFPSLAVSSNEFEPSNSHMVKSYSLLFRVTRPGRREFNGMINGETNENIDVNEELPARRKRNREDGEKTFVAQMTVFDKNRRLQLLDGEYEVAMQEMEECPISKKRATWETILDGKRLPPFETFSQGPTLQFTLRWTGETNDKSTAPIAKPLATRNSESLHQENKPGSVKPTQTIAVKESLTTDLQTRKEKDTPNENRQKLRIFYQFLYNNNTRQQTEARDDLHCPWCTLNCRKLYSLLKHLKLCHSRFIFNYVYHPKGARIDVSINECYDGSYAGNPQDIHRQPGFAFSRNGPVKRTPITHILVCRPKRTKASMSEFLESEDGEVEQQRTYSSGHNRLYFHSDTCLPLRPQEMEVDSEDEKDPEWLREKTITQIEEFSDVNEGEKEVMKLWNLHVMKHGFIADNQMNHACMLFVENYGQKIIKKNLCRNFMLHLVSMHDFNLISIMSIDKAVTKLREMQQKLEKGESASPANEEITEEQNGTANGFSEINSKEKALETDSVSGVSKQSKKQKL

IC50 [µM]	Structure (SMILES)
> 80	CC1(C)CC(NC(=O)c2ccc(CSc3ccccc3)cc2)CC(C)(C)N1 [Compound I-83]
20 to 80	CC1(C)CC(NC(=O)c2ccc(Oc3cccc4c(N)nccc34)cc2)CC(C)(C)N1 [Compound I-316]
< 5	CN(C)C(=O)CCc1cccc(Oc2ccc(C(=O)NC3CC(C)(C)NC(C)(C)C3)cc2Cl)c1C#N [Compound I-552]
20 to 80	Cc1cccc(C#N)c1Oc1ccc(C(=O)NC2CC(C)(C)NC(C)(C)C2)cc1 [Compound I-176]
5 to 20	CC1(C)CC(NC(=O)c2ccc(Oc3ccccc3OCc3ccncc3)cc2)CC(C)(C)N1 [Compound I-209]
> 80	CC1(C)CC(NC(=O)c2ccc(CCOc3ccccc3)cc2)CC(C)(C)N1 [Compound I-292]
< 5	Cc1cc(C(=O)NC2CC(C)(C)NC(C)(C)C2)ccc1Oc1cccc(CC#N)c1 [Compound I-345]
20 to 80	CC1(C)CC(NC(=O)c2ccc(NC(=O)c3cccc(Br)c3)cc2)CC(C)(C)N1 [Compound I-162]
> 80	CC1(C)CC(NC(=O)c2ccc(COc3ccccn3)cc2)CC(C)(C)N1 [Compound I-80]
20 to 80	CC1(C)CC(NC(=O)c2ccc(COCc3ccccc3)cc2)CC(C)(C)N1 [Compound I-62]
> 80	CC1(C)CC(NC(=O)c2cccc(COc3ccccc3)c2)CC(C)(C)N1 [Compound I-111]
5 to 20	CC1(C)CC(NC(=O)c2ccc(Oc3ccccc3Cc3ccccc3)cc2)CC(C)(C)N1 [Compound I-149]
20 to 80	CC1(C)CC(NC(=O)c2ccc(-c3ccccc3)cc2)CC(C)(C)N1 [Compound I-61]
> 80	CN(Cc1ccccc1)C(=O)c1ccc(Oc2ccccc2)cc1 [Compound I-133]
> 80	CC1(C)CC(C(=O)Nc2ccc(Oc3ccccc3)cc2)CC(C)(C)N1 [Compound I-192]
20 to 80	CC1(C)CC(NC(=O)c2ccc(COc3ccnc(Cl)c3)cc2)CC(C)(C)N1 [Compound I-66]
> 80	CN1CCC(NC(=O)c2ccc(Oc3cccc(-c4ccnnc4)c3C#N)c(Cl)c2)CC1 [Compound I-465]
20 to 80	CC1(C)CC(NC(=O)c2ccc(Oc3ccccn3)cc2)CC(C)(C)N1 [Compound I-56]
< 5	CC1(C)CC(NC(=O)c2ccc(Oc3ccccc3C#N)c(Cl)c2)CC(C)(C)N1CCO [Compound I-459]
5 to 20	CC1(C)CC(NC(=O)c2ccc(Oc3ncccc3C#N)c(Cl)c2)CC(C)(C)N1 [Compound I-249]
20 to 80	CC1(C)CC(NC(=O)c2ccc(Oc3ccc(O)cc3)cc2)CC(C)(C)N1 [Compound I-25]
< 5	CC1(C)CC(NC(=O)c2ccc(Oc3cccc(C(F)(F)F)c3C#N)c(Cl)c2)CC(C)(C)N1 [Compound I-311]
20 to 80	CC1(C)CC(NC(=O)c2ccc(COc3cccc(-c4ccc(=O)[nH]c4)c3)cc2)CC(C)(C)N1 [Compound I-65]
> 80	CC1(C)CC(NC(=O)c2ccc(Oc3ncccc3C(N)=O)cc2)CC(C)(C)N1 [Compound I-103, 2-(4-(2,2,6,6-Tetramethylpiperidin-4-ylcarbamoyl)phenoxy)nicotinamide]
> 80	Cc1ccc(OCc2ccc(C(=O)NC3CC(C)(C)NC(C)(C)C3)cc2)nc1 [Compound I-70]
> 80	CNc1cccc(OCc2ccc(C(=O)NC3CC(C)(C)NC(C)(C)C3)cc2)n1 [Compound I-121, 4-(((6-(methylamino)pyridin-2-yl)oxy)methyl)-N-(2,2,6,6-tetramethylpiperidin-4-yl)benzamide]
> 80	CC1(C)CC(NC(=O)c2ccc(OCc3ccccc3)cc2)CC(C)(C)N1 [Compound I-75]

Further lines, the molecule ahead of its results:

Structure (SMILES)	IC50 [µM]
CC1(C)CC(NC(=O)N2CCN(Cc3ccccc3C#N)CC2)CC(C)(C)N1 [Compound I-438]	> 80
CC1(C)CC(NC(=O)c2ccc(Oc3ccc4[nH]ccc4c3)cc2)CC(C)(C)N1 [Compound I-82]	> 80
Cc1cc(C(=O)NC2CC(C)(C)NC(C)(C)C2)ccc1Oc1cccc(C2CC2)c1C#N [Compound I-263]	< 5
CC1(C)CC(NC(=O)c2ccc3cc(Oc4ccccc4C#N)ccc3c2)CC(C)(C)N1 [Compound I-200]	20 to 80
Cc1ccc(OCc2ccc(C(=O)NC3CC(C)(C)NC(C)(C)C3)cc2)cc1C [Compound I-15]	5 to 20
CC1(C)CC(NC(=O)c2ccc(COc3ccnc4ccccc34)cc2)CC(C)(C)N1 [Compound I-128]	> 80
CC1(C)CC(NC(=O)c2ccc(Oc3ccccc3F)cc2)CC(C)(C)N1 [Compound I-40]	20 to 80
COc1ccc(Oc2ccc(C(=O)NC3CC(C)(C)NC(C)(C)C3)cc2)c(C(=O)O)c1 [Compound I-120, 2-(4-(2,2,6,6-tetramethylpiperidin-4-ylcarbamoyl)phenoxy)-5-methoxy benzoic acid]	> 80
CCc1cccc(Oc2ccc(C(=O)NC3CC(C)(C)NC(C)(C)C3)cc2)c1 [Compound I-131]	> 80
COC(=O)c1ccc(COc2ccc(C(=O)NC3CC(C)(C)NC(C)(C)C3)cc2)cc1 [Compound I-117]	> 80
CC1(C)CC(NC(=O)c2ccc(Oc3cccc4nccn34)c(Cl)c2)CC(C)(C)N1 [Compound I-372]	5 to 20
Cc1cc(C(=O)NC2CC(C)(C)NC(C)(C)C2)ccc1Oc1ccccc1 [Compound I-24]	20 to 80
Cc1ccc(Oc2ccc(C(=O)NC3CC(C)(C)NC(C)(C)C3)cc2)cc1 [Compound I-92]	> 80
COc1ccc(-c2cccc(Oc3ccc(C(=O)NC4CC(C)(C)NC(C)(C)C4)cc3Cl)c2C#N)cn1 [Compound I-366]	< 5
CC1(C)CC(NC(=O)c2ccc(Oc3cccc4c3CCCC4)cc2)CC(C)(C)N1 [Compound I-181]	5 to 20
CC1(C)CC(NC(=O)c2ccc(-n3ncc4c(Br)cccc43)c(Cl)c2)CC(C)(C)N1 [Compound I-490]	5 to 20
CC1(C)CC(NC(=O)c2ccc(COc3cccc(-c4cccc(O)c4)c3)cc2)CC(C)(C)N1 [Compound I-30]	20 to 80
O=C(N[C@H]1CCN(Cc2ccccc2)C1)c1ccc(Oc2ccccc2)cc1 (stereo in doubt) [Compound I-101]	> 80
Cc1ncccc1Oc1ccc(C(=O)NC2CC(C)(C)NC(C)(C)C2)cc1 [Compound I-20]	5 to 20
CC1(C)CC(NC(=O)c2ccc(COc3cccc4cnccc34)cc2)CC(C)(C)N1 [Compound I-182]	5 to 20
COc1ncccc1-c1cccc(OCc2ccc(C(=O)NC3CC(C)(C)NC(C)(C)C3)cc2)c1 [Compound I-55]	20 to 80
CC1(C)CC(NC(=O)c2ccc(Oc3cccc(CN4CCOCC4)c3)cc2)CC(C)(C)N1 [Compound I-234]	> 80
CC1(C)CC(NC(=O)c2ccc(Oc3ncccn3)cc2)CC(C)(C)N1 [Compound I-79]	> 80
CC1(C)CC(NC(=O)c2ccc(Oc3cccc(C4CCNCC4)c3C#N)cc2)CC(C)(C)N1 [Compound I-534]	< 5

Structure (SMILES)	IC50 [µM]
CC1(C)CC(NC(=O)c2ccc(Oc3ccccc3-c3ccccc3)c(Cl)c2)CC(C)(C)N1 [Compound I-206]	< 5
CC1(C)CC(NC(=O)c2ccc(Oc3c(Cl)cccc3C#N)cc2)CC(C)(C)N1 [Compound I-244]	20 to 80
Cc1ccc(OCc2ccc(C(=O)NC3CC(C)(C)NC(C)(C)C3)cc2)c(C)c1 [Compound I-42]	20 to 80
CC1(C)CC(NC(=O)c2ccc(Oc3ccccc3C3CCNCC3)c(Cl)c2)CC(C)(C)N1 [Compound I-230]	5 to 20
CC1(C)CC(NC(=O)c2ccc(Oc3cccc(C4CCCN4)c3C#N)c(Cl)c2)CC(C)(C)N1 (centres unmarked) [Compound I-562]	< 5
CC1(C)CC(NC(=O)c2ccc(COc3cccc(-c4cccnc4)c3)cc2)CC(C)(C)N1 [Compound I-7]	5 to 20
CN1CCN(C(=O)CCc2cccc(Oc3ccc(C(=O)NC4CC(C)(C)NC(C)(C)C4)cc3Cl)c2C#N)CC1 [Compound I-555]	< 5
Cc1ccc(Oc2ccc(C(=O)NC3CC(C)(C)NC(C)(C)C3)cc2)c(C#N)c1 [Compound I-156]	> 80
N#CCCN1CCC(NC(=O)c2ccc(Oc3cccc(-c4ccnnc4)c3C#N)c(Cl)c2)CC1 [Compound I-485]	20 to 80
CC1(C)CC(NC(=O)c2ccc(Nc3ccccc3)cc2)CC(C)(C)N1 [Compound I-107]	> 80
CC1(C)CC(NC(=O)N2CCC(c3ccccc3)C2)CC(C)(C)N1 (centres unmarked) [Compound I-470]	> 80
COC(=O)c1cncc(-c2ccccc2Oc2ccc(C(=O)NC3CC(C)(C)NC(C)(C)C3)cc2Cl)c1 [Compound I-322]	< 5
COCc1cccc(Oc2ccc(C(=O)NC3CC(C)(C)NC(C)(C)C3)cc2Cl)c1C#N [Compound I-453]	< 5
CC1(C)CC(NC(=O)c2ccc(Oc3ccccc3C#N)c(-c3cccnc3)c2)CC(C)(C)N1 [Compound I-211]	< 5
CN(C(=O)c1ccc(COc2cccc(Br)c2)cc1)C1CCNCC1 [Compound I-126]	> 80
CNC(=O)CC1(NC(=O)c2ccc(Oc3cccc(-c4ccnnc4)c3C#N)c(Cl)c2)CC(C)(C)NC(C)(C)C1 [Compound I-570]	> 80
CC1(C)CC(NC(=O)c2ccc(COc3cccc4ccccc34)cc2)CC(C)(C)N1 [Compound I-4]	< 5
CC1CC(NC(=O)c2ccc(Oc3ccccc3C#N)c(Cl)c2)CC(C)N1 (centres unmarked) [Compound I-467]	20 to 80
CC1(C)CC(NC(=O)c2ccc(Oc3cccc4ncccc34)cc2)CC(C)(C)N1 [Compound I-222]	> 80
CC1(C)CC(NC(=O)c2ccc(COc3cccc(C#N)c3)cc2)CC(C)(C)N1 [Compound I-76]	> 80
Cc1cc(C(=O)NC2CC(C)(C)NC(C)(C)C2)cc(C)c1Oc1ccccc1C#N [Compound I-335]	20 to 80
CCN(C(=O)c1ccc(Oc2ccccc2C#N)c(Cl)c1)C1CC(C)(C)NC(C)(C)C1 [Compound I-341]	> 80
COc1cc(C(=O)NC2CC(C)(C)NC(C)(C)C2)cc2c1OCCO2 [Compound I-471]	> 80
